According to paper PMC3409642 (Pharmaceutical research, 2012):

What follows are molecules tested against T1, UGT1A9 (Homo sapiens, UniProt O60656) (assay: not given). Details: human, recombinant enzyme, pH 7.4.
T1 sequence (O60656 26-530): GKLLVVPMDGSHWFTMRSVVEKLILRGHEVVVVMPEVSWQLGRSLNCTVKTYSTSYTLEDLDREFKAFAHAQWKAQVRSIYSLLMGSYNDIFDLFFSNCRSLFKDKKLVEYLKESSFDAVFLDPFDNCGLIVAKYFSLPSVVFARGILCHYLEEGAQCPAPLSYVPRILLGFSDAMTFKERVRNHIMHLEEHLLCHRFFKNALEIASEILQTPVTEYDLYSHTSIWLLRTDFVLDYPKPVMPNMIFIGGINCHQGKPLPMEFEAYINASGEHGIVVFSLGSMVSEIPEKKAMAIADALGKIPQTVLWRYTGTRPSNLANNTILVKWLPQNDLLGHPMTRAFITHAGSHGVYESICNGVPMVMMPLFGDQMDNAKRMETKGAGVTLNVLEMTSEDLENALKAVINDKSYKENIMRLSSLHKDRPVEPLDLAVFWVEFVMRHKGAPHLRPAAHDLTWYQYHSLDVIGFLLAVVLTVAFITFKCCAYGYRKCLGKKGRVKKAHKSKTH

Molecule	Log (CLint) (Actual)
CN(C)CCc1c[nH]c2cccc(O)c12 [compound 143, Psilocin]	0.90

Each molecule was assayed against T1, UGT1A9 (assay: Kinetic profiling of glucuronidation by expressed human UGT1A9). Details: log of experimental CLint (μl/mg/min).

Molecule	Log (CLint) (Actual)
O=c1cc(-c2ccccc2O)oc2cc(O)ccc12 [compound 42, 7,2′-Dihydroxyflavone]	2.77
Oc1cc(O)c2c(c1)O[C@H](c1cc(O)c(O)c(O)c1)[C@H](O)C2 [compound 2, (−)-Epigallocatechin]	1.58
O=c1c(O)c(-c2ccc(O)c(O)c2)oc2ccccc12 [compound 63, 3,3′,4′-Trihydroxyflavone]	4.34
COc1ccc(-c2oc3ccc(OC)cc3c(=O)c2O)cc1 [compound 77, 3-Hydroxy-6,4′-dimethoxyflavone]	4.71
O=c1c(O)c(-c2ccccc2O)oc2cc(O)cc(O)c12 [compound 83, Datiscetin]	2.00
COc1ccc(-c2coc3cc(O)ccc3c2=O)cc1 [compound 104, Formononetin]	1.48
Oc1ccc2c(c1)OC[C@H]1c3cc4c(cc3O[C@@H]21)OCO4 [compound 107, Maackiain]	1.87
COc1cc(OC)c2c(=O)c(O)c(-c3ccccc3)oc2c1 [compound 75, 3-Hydroxy-5,7-dimethoxyflavone]	4.40
COc1cc(O)c2c(=O)c(-c3ccc(O)cc3)coc2c1 [compound 108, Prunetin]	2.25
COc1ccc(O)cc1 [compound 118, 4-Methoxyphenol]	1.18
O=c1cc(-c2ccc(O)c(O)c2)oc2cc(O)cc(O)c12 [56.a, Luteolin]	3.58
O=c1cc(-c2ccc(O)c(O)c2)oc2cc(O)ccc12 [41.a, 7,3′,4′-Trihydroxyflavone]	3.08
O=c1c(O)c(-c2ccc(O)cc2O)oc2cc(O)cc(O)c12 [compound 89, Morin]	1.77
COc1cc2c(=O)c(-c3ccccc3)coc2cc1O [compound 98, 7-Hydroxy-6-methoxyisoflavone]	2.57
O=C(c1ccccc1)c1ccc(O)cc1 [compound 122, 4-Hydroxybenzophenone]	1.83
O=c1c(O)c(-c2ccccc2)oc2cccc(O)c12 [compound 61, 3,5-Dihydroxyflavone]	3.87
CC/C(=C(\c1ccc(O)cc1)c1ccc(OCCNC)cc1)c1ccccc1 [compound 19, Endoxifen]	0.82
COc1cccc2oc(-c3ccccc3)c(O)c(=O)c12 [compound 76, 3-Hydroxy-5-methoxyflavone]	4.36
COc1ccc(-c2oc3cc(O)cc(O)c3c(=O)c2OC)cc1O [compound 29, 3,4′-Dimethoxy-5,7,3′-trihydroxyflavone]	3.66
O=c1c(O)c(-c2ccccc2)oc2ccccc12 [compound 81, 3-Hydroxyflavone]	3.84
CCN(CC)C(=O)/C(C#N)=C/c1cc(O)c(O)c([N+](=O)[O-])c1 [compound 140, Entacapone, reference compound]	4.01
COc1cc(-c2oc3cc(O)cc(O)c3c(=O)c2O)cc(OC)c1O [94.a, Syringetin]	3.87
Cc1ccc2oc(-c3ccccc3)c(O)c(=O)c2c1 [compound 66, 3-Hydroxy-6-methylflavone]	5.04
O=c1c(O)c(-c2ccc(O)cc2)oc2cc(O)cc(O)c12 [88.a, Kaempferol]	3.78
COc1cccc(-c2oc3ccccc3c(=O)c2O)c1 [compound 73, 3-Hydroxy-3′-methoxyflavone]	4.66
O=c1c(O)c(-c2ccccc2O)oc2ccccc12 [compound 59, 3,2′-Dihydroxyflavone]	1.89
O=C(/C=C/c1ccccc1)c1ccc(O)cc1 [compound 6, 4′-Hydroxychalcone]	2.29

Molecule	Log (CLint) (Actual)
O=c1c(O)c(-c2ccc(O)c(O)c2)oc2cc(O)cc(O)c12 [91.a, Quercetin]	3.97
CCc1ccc(O)cc1 [compound 114, 4-Ethylphenol]	1.87
Oc1ccc(Cl)cc1 [compound 111, 4-Chlorophenol]	1.98
O=c1cc(-c2ccccc2)oc2cc(O)ccc12 [compound 49, 7-Hydroxyflavone]	3.13
(−)-Epigallocatechingallate [1.a]	2.20
O=C1[C@H](CC[C@H](O)c2ccc(F)cc2)[C@@H](c2ccc(O)cc2)N1c1ccc(F)cc1 [compound 141, Ezetimibe, reference compound]	−0.56
COc1cc(O)c2c(=O)c(O)c(-c3ccc(O)c(O)c3)oc2c1 [compound 93, Rhamnetin]	4.65
O=c1c(O)c(-c2ccc(O)cc2)oc2cc(O)ccc12 [92.a, Resokaempferol]	3.86
COc1cccc(-c2oc3ccccc3c(=O)c2O)c1OC [compound 71, 3-Hydroxy-2′,3′-dimethoxyflavone]	3.92
O=C(/C=C/c1ccccc1O)c1ccccc1 [compound 3, 2-Hydroxychalcone]	3.38
Oc1ccc(/C=C/c2cc(O)cc(O)c2)cc1 [compound 138, Resveratrol]	1.8
COc1c(O)cc2oc(-c3ccc(O)c(O)c3)cc(=O)c2c1O [compound 39, 6-Methoxyluteolin]	3.22
O=c1c(O)c(-c2ccc(O)c(O)c2)oc2cc(O)ccc12 [84.a, Fisetin]	3.38
O=C(/C=C/c1ccc(O)cc1)c1ccccc1 [compound 4, 4-Hydroxychalcone]	1.53
O=c1cc(-c2ccccc2)oc2ccc(O)cc12 [compound 38, 6-Hydroxyflavone]	1.53
O=c1cc(-c2cccc(O)c2)oc2ccccc12 [compound 31, 3′-Hydroxyflavone]	2.66
O=c1oc2cc(O)ccc2c(-c2ccccc2)c1-c1ccccc1 [compound 9, 3,4-Diphenyl-7-hydroxycoumarin]	1.61
O=C(c1ccc(OCCN2CCCCC2)cc1)c1c(-c2ccc(O)cc2)sc2cc(O)ccc12 [compound 22, Raloxifene, reference compound]	1.31
Cc1ccc2oc(-c3ccc4c(c3)OCO4)c(O)c(=O)c2c1 [compound 82, 3-Hydroxy-6-methyl-3′,4′-methylenedioxyflavone]	4.96
COc1ccc(-c2oc3ccccc3c(=O)c2O)cc1 [compound 74, 3-Hydroxy-4′-methoxyflavone]	4.51
Oc1ccc([C@H]2COc3cc(O)ccc3C2)cc1 [compound 103, Equol]	0.57
Cc1c(-c2ccccc2)oc2cc(O)ccc2c1=O [compound 45, 7-Hydroxy-3-methylflavone]	3.30
O=C1OC[C@H](Cc2cccc(O)c2)[C@H]1Cc1cccc(O)c1 [compound 20, Enterolactone]	1.96
Cc1ccc(C(=O)c2cc(O)c(O)c([N+](=O)[O-])c2)cc1 [compound 145, Tolcapone, reference compound]	2.62
COc1cc(/C=C/C(O)=C/C(=O)/C=C/c2ccc(O)cc2)ccc1O [compound 16, Demethoxycurcumin]	1.14
O=c1cc(-c2ccccc2)oc2cc(O)c(O)cc12 [compound 37, 6,7-Dihydroxyflavone]	2.96
COc1ccc2oc(-c3ccccc3)c(O)c(=O)c2c1 [compound 78, 3-Hydroxy-6-methoxyflavone]	4.86

Same assay, conditions: log of experimental CLint (μl/mg/min); listed as 1.b

Molecule	Log (CLint) (Actual)
(−)-Epigallocatechingallate [1.a]	2.81

Same assay, conditions: log of experimental CLint (μl/mg/min); listed as 41.b

Molecule	Log (CLint) (Actual)
O=c1cc(-c2ccc(O)c(O)c2)oc2cc(O)ccc12 [41.a, 7,3′,4′-Trihydroxyflavone]	2.48

Same assay, conditions: log of experimental CLint (μl/mg/min); listed as 41.c

Molecule	Log (CLint) (Actual)
O=c1cc(-c2ccc(O)c(O)c2)oc2cc(O)ccc12 [41.a, 7,3′,4′-Trihydroxyflavone]	2.11

Same assay, conditions: log of experimental CLint (μl/mg/min); listed as 56.b

Molecule	Log (CLint) (Actual)
O=c1cc(-c2ccc(O)c(O)c2)oc2cc(O)cc(O)c12 [56.a, Luteolin]	3.32

Same assay, conditions: log of experimental CLint (μl/mg/min); listed as 84.b

Molecule	Log (CLint) (Actual)
O=c1c(O)c(-c2ccc(O)c(O)c2)oc2cc(O)ccc12 [84.a, Fisetin]	3.55

Same assay, conditions: log of experimental CLint (μl/mg/min); listed as 84.c

Molecule	Log (CLint) (Actual)
O=c1c(O)c(-c2ccc(O)c(O)c2)oc2cc(O)ccc12 [84.a, Fisetin]	3.49

Same assay, conditions: log of experimental CLint (μl/mg/min); listed as 88.b

Molecule	Log (CLint) (Actual)
O=c1c(O)c(-c2ccc(O)cc2)oc2cc(O)cc(O)c12 [88.a, Kaempferol]	2.34

Same assay, conditions: log of experimental CLint (μl/mg/min); listed as 91.b

Molecule	Log (CLint) (Actual)
O=c1c(O)c(-c2ccc(O)c(O)c2)oc2cc(O)cc(O)c12 [91.a, Quercetin]	3.32

Same assay, conditions: log of experimental CLint (μl/mg/min); listed as 91.c

Molecule	Log (CLint) (Actual)
O=c1c(O)c(-c2ccc(O)c(O)c2)oc2cc(O)cc(O)c12 [91.a, Quercetin]	3.65

Same assay, conditions: log of experimental CLint (μl/mg/min); listed as 92.b

Molecule	Log (CLint) (Actual)
O=c1c(O)c(-c2ccc(O)cc2)oc2cc(O)ccc12 [92.a, Resokaempferol]	2.63

Same assay, conditions: log of experimental CLint (μl/mg/min); listed as 94.b

Molecule	Log (CLint) (Actual)
COc1cc(-c2oc3cc(O)cc(O)c3c(=O)c2O)cc(OC)c1O [94.a, Syringetin]	2.26
